Measured values as given in US7135487B2, “Sulphonamide derivatives” (Eli Lilly and Company, priority 1997, dated 2006).

Legend:
human GluR4B = biological target: T1, human GluR4B (Homo sapiens, UniProt P48058); assay: Fluo3-AM fluorescence test of glutamate-induced response in HEK cells, relative to 100 μM cyclothiazide; format: cell-based; conditions: human GluR4B receptor expressed in HEK 293 cells
T1 construct: expressed in transfected cells; host or cells: HEK (HEK 293)
Method: 96 well plates containing confluent monolayers of HEK cells stably expressing human GluR4B (obtained as described in European Patent Application Publication Number EP-A1–583917) were prepared. The tissue culture medium in the wells was then discarded, and the wells were each washed once with 200 μl of 5NaCa buffer (glucose, 10 mM, sodium chloride, 138 mM, magnesium chloride, 1 mM, potassium chloride, 5 mM, calcium chloride, 5 mM, N-[2-hydroxyethyl]-piperazine-N-[2-ethanesulfonic acid], 10 mM, to pH 7.1 to 7.3). The plates were then incubated for 60 minutes in the dark with 20 μM Fluo3-AM dye (obtained from Molecular Probes Inc, Eugene, Oreg.) in 5 NaCa buffer in each well. After the incubation, each well was washed once with 100 μl 5NaCa buffer, 200 μl of 5NaCa buffer was added and the plates were incubated for 30 minutes. […]
Each test was then performed as follows. […] A first reading was then taken using a FLUOROSKAN II fluorimeter (Obtained from Labsystems, Needham Heights, Mass., USA, a Division of Life Sciences International Plc). […] A second reading was then taken using the fluorimeter. The plate was then left in the fluorimeter for 5 minutes, and a third reading was taken. 15 μl of 400 μM glutamate solution was then added to each well (final glutamate concentration 100 μM), and a fourth reading was taken immediately. Approximately three minutes later, a fifth reading was taken. […]

T1 sequence (P48058 21-902): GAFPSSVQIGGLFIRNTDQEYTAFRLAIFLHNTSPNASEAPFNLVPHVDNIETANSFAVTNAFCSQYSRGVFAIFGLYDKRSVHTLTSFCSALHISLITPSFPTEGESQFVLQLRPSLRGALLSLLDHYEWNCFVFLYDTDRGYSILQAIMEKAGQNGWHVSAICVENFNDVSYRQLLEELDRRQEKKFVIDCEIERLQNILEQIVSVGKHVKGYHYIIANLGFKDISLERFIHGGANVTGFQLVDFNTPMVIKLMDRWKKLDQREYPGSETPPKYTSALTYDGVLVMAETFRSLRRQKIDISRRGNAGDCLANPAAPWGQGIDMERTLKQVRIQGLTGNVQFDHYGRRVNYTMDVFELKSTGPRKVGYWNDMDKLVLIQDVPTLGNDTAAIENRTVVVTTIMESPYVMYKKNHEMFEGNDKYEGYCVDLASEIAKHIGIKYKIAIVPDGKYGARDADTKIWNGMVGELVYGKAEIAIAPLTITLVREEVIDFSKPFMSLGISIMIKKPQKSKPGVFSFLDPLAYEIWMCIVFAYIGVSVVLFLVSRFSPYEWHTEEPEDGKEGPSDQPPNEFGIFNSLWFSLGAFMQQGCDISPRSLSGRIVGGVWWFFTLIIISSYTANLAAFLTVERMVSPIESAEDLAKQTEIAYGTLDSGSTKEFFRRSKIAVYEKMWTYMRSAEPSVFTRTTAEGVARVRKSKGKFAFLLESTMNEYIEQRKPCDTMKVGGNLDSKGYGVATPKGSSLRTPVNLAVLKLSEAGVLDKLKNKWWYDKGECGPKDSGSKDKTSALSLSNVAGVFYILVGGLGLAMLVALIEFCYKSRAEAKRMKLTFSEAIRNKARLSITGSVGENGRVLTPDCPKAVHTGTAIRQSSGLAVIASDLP

Row | SMILES | melting point [°C] | potentiation of agonist-induced excitability of human GluR4B receptor (human GluR4B)
1 | CC(C)(C)c1ccc(C2(CNS(=O)(=O)C(F)(F)F)CC2)cc1 | 82 to 84 | –
2 | CC(C)S(=O)(=O)NCC1(c2ccc(C(C)(C)C)cc2)CC1 | 87 to 89.5 | –
3 | NS(=O)(=O)c1cc2c(cc1Cl)NC(C1CC3C=CC1C3)NS2(=O)=O (stereo not drawn) [cyclothiazide] | – | potentiate
